Values of other authors as cited in patent US10206949B2, “Composition that relieves heartburn, GERD and hangovers” (priority 2015, dated 2019).

[1] = patients with acute renal or cardiac failure

## CNC(=C[N+](=O)[O-])NCCSCc1ccc(CN(C)C)o1 [ranitidine, N-(2-[(5-[(dimethylamino)methyl]furan-2-yl)methylthio]ethyl)-N′-methyl-2-nitroethene-1,1-diamine]
In vivo
  false positives for methamphetamine on drug tests: known to give false positives
Patients on ranitidine
  fungal sepsis: observed in some patients
[1]
  mucosal perfusion: decrease mucosal perfusion
  risk of death: increases their risk of death
